Reference: patent US20230398130A1, “METHODS AND COMPOSITIONS FOR DIFFERENTIATING STEM CELLS” (Massachusetts Institute of Technology, priority 2020, published 2023)
Where a name gives a salt, the structure may show the parent alone.

Assays:
ISC-enriched organoids [1] = assay: Primary screen, 384-well 2.5-D organoid differentiation (ENR+CD, 6 days): carbachol-induced lysozyme secretion (LYZ.S); assay type: cell-based, murine; details: primary screen; for Dose.FC.LYZ.S: FC vs plate median; for Z.LYZ.S: standard z score
Excerpt: (§1) High-throughput screening.

ISC-enriched organoids [2] = assay: Primary screen, 384-well 2.5-D organoid differentiation (ENR+CD, 6 days): basal lysozyme secretion (LYZ.NS); assay type: cell-based, murine; details: for Dose.FC.LYZ.NS / Z.LYZ.NS / SSMD.LYZ.NS: primary screen; for Dose.FC.LYZ.NS: FC vs plate median
Excerpt: as §1

ISC-enriched organoids [3] = assay: Primary screen, 384-well 2.5-D organoid differentiation (ENR+CD, 6 days, Target Selective Inhibitor Library, vs whole-plate median): ATP (CellTiter-Glo 3D, CTG); details: for Dose.FC.CTG: FC vs plate median; for SSMD.CTG: strictly standardized mean difference
[4] = dose 0.40 uM, standard z score of FC
[5] = primary screen, dose 0.08 uM, ENR+CD 6 days
[6] = primary screen, dose 0.08 uM, standard z score of FC
[7] = primary screen, dose 0.40 uM, ENR+CD 6 days
[8] = primary screen, dose 0.40 uM, standard z score of FC
[9] = primary screen, dose 2.00 uM, ENR+CD 6 days
[10] = primary screen, dose 2.00 uM, standard z score of FC
[11] = primary screen, dose 10.00 uM, ENR+CD 6 days
[12] = primary screen, dose 10.00 uM, standard z score of FC
[13] = strictly standardized mean difference, 1st of the 4 dose lines of the treatment (dose not given)
[14] = strictly standardized mean difference, 2nd of the 4 dose lines of the treatment (dose not given)
[15] = strictly standardized mean difference, 3rd of the 4 dose lines of the treatment (dose not given)
[16] = strictly standardized mean difference, 4th of the 4 dose lines of the treatment (dose not given)
[17] = Dose 0.08 uM, primary screen, standard z score
[18] = Dose 0.40 uM, primary screen, standard z score
[19] = Dose 2.00 uM, primary screen, standard z score
[20] = Dose 10.00 uM, primary screen, standard z score
[21] = primary screen, 1st of the 4 dose lines of the treatment (dose not given)
[22] = primary screen, 2nd of the 4 dose lines of the treatment (dose not given)
[23] = primary screen, 3rd of the 4 dose lines of the treatment (dose not given)
[24] = primary screen, 4th of the 4 dose lines of the treatment (dose not given)
[25] = strictly standardized mean difference of replicates, four lines per treatment = four doses (dose not given), column head inferred

Row | SMILES | Dose.FC.LYZ.S (ISC-enriched organoids [1]; dose 0.08 uM, ENR+CD 6 days) [log 2 fold change] | Dose.FC.LYZ.S (ISC-enriched organoids [1]; dose 0.40 uM, ENR+CD 6 days) [log 2 fold change] | Dose.FC.LYZ.S (ISC-enriched organoids [1]; dose 2.00 uM, ENR+CD 6 days) [log 2 fold change] | Dose.FC.LYZ.S (ISC-enriched organoids [1]; dose 10.00 uM, ENR+CD 6 days) [log 2 fold change] | Dose.FC.CTG (ISC-enriched organoids [3]; [5]) [log 2 fold change] | Z.CTG (ISC-enriched organoids [3]; [6]) | Dose.FC.CTG (ISC-enriched organoids [3]; [7]) [log 2 fold change] | Z.CTG (ISC-enriched organoids [3]; [8]) | Dose.FC.CTG (ISC-enriched organoids [3]; [9]) [log 2 fold change] | Z.CTG (ISC-enriched organoids [3]; [10]) | Dose.FC.CTG (ISC-enriched organoids [3]; [11]) [log 2 fold change] | Z.CTG (ISC-enriched organoids [3]; [12]) | Z.CTG (ISC-enriched organoids [3]; [17]) | Z.CTG (ISC-enriched organoids [3]; [18]) | Z.CTG (ISC-enriched organoids [3]; [19]) | Z.CTG (ISC-enriched organoids [3]; [20]) | SSMD.CTG (ISC-enriched organoids [3]; [21]) | SSMD.CTG (ISC-enriched organoids [3]; [22]) | SSMD.CTG (ISC-enriched organoids [3]; [23]) | SSMD.CTG (ISC-enriched organoids [3]; [24]) | other results
1 | CN1CCCCC1Cn1cc(C(=O)c2cc([N+](=O)[O-])ccc2I)c2ccccc21 (stereo not drawn) [AM1241] | 0.046 | 0.088 | −0.017 | −0.080 | 0.159 | 0.379 | −0.054 | −0.129 | −0.062 | −0.147 | −0.001 | −0.002 | – | – | – | – | – | – | – | – | Dose.FC.LYZ.NS (ISC-enriched organoids [2]; dose 0.08 uM, ENR+CD 6 days): 0.052 log 2 fold change; Z.LYZ.NS (ISC-enriched organoids [2]; dose 0.08 uM, standard z score of FC): 0.454; Dose.FC.LYZ.NS (ISC-enriched organoids [2]; dose 0.40 uM, ENR+CD 6 days): 0.004 log 2 fold change; Z.LYZ.NS (ISC-enriched organoids [2]; [4]): 0.035; Dose.FC.LYZ.NS (ISC-enriched organoids [2]; dose 2.00 uM, ENR+CD 6 days): −0.014 log 2 fold change; Z.LYZ.NS (ISC-enriched organoids [2]; dose 2.00 uM, standard z score of FC): −0.123; Dose.FC.LYZ.NS (ISC-enriched organoids [2]; dose 10.00 uM, ENR+CD 6 days): −0.003 log 2 fold change; Z.LYZ.NS (ISC-enriched organoids [2]; dose 10.00 uM, standard z score of FC): −0.028
2 | C=CC(=O)N1CCC[C@@H](n2nc(-c3ccc(Oc4ccccc4)cc3)c3c(N)ncnc32)C1 [Ibrutinib (PCI-32765)] | – | – | – | – | – | – | – | – | – | – | – | – | −0.065 | −1.112 | −1.244 | −2.224 | −0.062 | −0.574 | −1.005 | −0.875 | Dose.FC.LYZ.NS (ISC-enriched organoids [2]; Dose 0.08 uM): −0.071 log 2 fold change; Z.LYZ.NS (ISC-enriched organoids [2]; Dose 0.08 uM, standard z score): −0.619; Dose.FC.LYZ.NS (ISC-enriched organoids [2]; Dose 0.40 uM): −0.141 log 2 fold change; Z.LYZ.NS (ISC-enriched organoids [2]; Dose 0.40 uM, standard z score): −1.225; Dose.FC.LYZ.NS (ISC-enriched organoids [2]; Dose 2.00 uM): −0.202 log 2 fold change; Z.LYZ.NS (ISC-enriched organoids [2]; Dose 2.00 uM, standard z score): −1.763; Dose.FC.LYZ.NS (ISC-enriched organoids [2]; Dose 10.00 uM): −0.199 log 2 fold change; Z.LYZ.NS (ISC-enriched organoids [2]; Dose 10.00 uM, standard z score): −1.737; SSMD.LYZ.NS (ISC-enriched organoids [2]; [13]): −0.704; SSMD.LYZ.NS (ISC-enriched organoids [2]; [14]): −1.031; SSMD.LYZ.NS (ISC-enriched organoids [2]; [15]): −1.175; SSMD.LYZ.NS (ISC-enriched organoids [2]; [16]): −1.325; Dose.FC.CTG (ISC-enriched organoids [3]; Dose 0.08 uM, primary screen): −0.027 log 2 fold change; Dose.FC.CTG (ISC-enriched organoids [3]; Dose 0.40 uM, primary screen): −0.466 log 2 fold change; Dose.FC.CTG (ISC-enriched organoids [3]; Dose 2.00 uM, primary screen): −0.521 log 2 fold change; Dose.FC.CTG (ISC-enriched organoids [3]; Dose 10.00 uM, primary screen): −0.931 log 2 fold change
3 | NC(=O)c1cccc(-c2cccc(OC(=O)NC3CCCCC3)c2)c1 [URB597] | – | – | – | – | – | – | – | – | – | – | – | – | – | – | – | – | – | – | – | – | Z.LYZ.NS (standard z score) (ISC-enriched organoids [2]; dose 0.08 uM): 0.754; Z.LYZ.NS (standard z score) (ISC-enriched organoids [2]; dose 0.40 uM): −0.007; Z.LYZ.NS (standard z score) (ISC-enriched organoids [2]; dose 2.00 uM): 0.307; Z.LYZ.NS (standard z score) (ISC-enriched organoids [2]; dose 10.00 uM): −0.123; Z.CTG (standard z score) (ISC-enriched organoids [3]; dose 0.08 uM): 0.750; Z.CTG (standard z score) (ISC-enriched organoids [3]; dose 0.40 uM): 0.154; Z.CTG (standard z score) (ISC-enriched organoids [3]; dose 2.00 uM): 0.328; Z.CTG (standard z score) (ISC-enriched organoids [3]; dose 10.00 uM): −0.051
4 | CCOc1nc2cccc(C(=O)O)c2n1Cc1ccc(-c2ccccc2-c2nnn[nH]2)cc1 [Candesartan] | – | – | – | – | – | – | – | – | – | – | – | – | – | – | – | – | – | – | – | – | SSMD.LYZ.NS (ISC-enriched organoids [2]; [25]): −0.474; Z.CTG (ISC-enriched organoids [3]; Dose 0.40 uM, standard z score of FC): −0.299; Z.CTG (ISC-enriched organoids [3]; Dose 2.00 uM, standard z score of FC): −0.473; Z.CTG (ISC-enriched organoids [3]; Dose 10.00 uM, standard z score of FC): −0.604
5 | CC(C)C[C@H](NC(=O)[C@H](Cc1ccccc1)NC(=O)c1cnccn1)B(O)O [Bortezomib (PS-341)] | −0.239 | −0.173 | −0.249 | −0.238 | −1.904 | −4.547 | −2.146 | −5.127 | −0.915 | −2.185 | −1.359 | −3.246 | – | – | – | – | – | – | – | – | –
6 | CC(C)(C#N)c1cc(Cn2cncn2)cc(C(C)(C)C#N)c1 [Anastrozole] | – | – | – | – | – | −0.279 | – | 0.057 | – | −0.139 | – | −1.191 | – | – | – | – | – | – | – | – | SSMD.LYZ.S (ISC-enriched organoids [1]; [25]): 0.304
7 | CCN(CC)C(=O)c1ccc(C2=CC3(CCNCC3)Oc3cccc(O)c32)cc1 [ADL5859 HCl] | – | – | – | – | – | 0.645 | – | 0.389 | – | 0.695 | – | 0.465 | – | – | – | – | – | – | – | – | Z.LYZ.NS (ISC-enriched organoids [2]; [4]): 0.163
8 | O=c1cc(-c2cccc3c2Sc2ccccc2S3)oc(N2CCOCC2)c1 [KU-55933 (ATM Kinase Inhibitor)] | – | – | – | – | – | – | – | – | – | – | – | – | 1.251 | 1.140 | 1.317 | 1.293 | 1.626 | 1.743 | 1.554 | 1.744 | Dose.FC.LYZ.S (ISC-enriched organoids [1]; Dose 0.08 uM): 0.168 log 2 fold change; Dose.FC.LYZ.S (ISC-enriched organoids [1]; Dose 0.40 uM): 0.200 log 2 fold change; Dose.FC.LYZ.S (ISC-enriched organoids [1]; Dose 2.00 uM): 0.161 log 2 fold change; Dose.FC.LYZ.S (ISC-enriched organoids [1]; Dose 10.00 uM): 0.076 log 2 fold change; Z.LYZ.S (ISC-enriched organoids [1]; 1st of the 4 dose lines of the treatment (dose not given)): 1.088; Z.LYZ.S (ISC-enriched organoids [1]; 2nd of the 4 dose lines of the treatment (dose not given)): 1.291; Z.LYZ.S (ISC-enriched organoids [1]; 3rd of the 4 dose lines of the treatment (dose not given)): 1.043; Z.LYZ.S (ISC-enriched organoids [1]; 4th of the 4 dose lines of the treatment (dose not given)): 0.494; SSMD.LYZ.S (ISC-enriched organoids [1]; [13]): 1.113; SSMD.LYZ.S (ISC-enriched organoids [1]; [14]): 0.994; SSMD.LYZ.S (ISC-enriched organoids [1]; [15]): 1.246; SSMD.LYZ.S (ISC-enriched organoids [1]; [16]): 0.400; Dose.FC.CTG (ISC-enriched organoids [3]; Dose 0.08 uM, primary screen): 0.524 log 2 fold change; Dose.FC.CTG (ISC-enriched organoids [3]; Dose 0.40 uM, primary screen): 0.477 log 2 fold change; Dose.FC.CTG (ISC-enriched organoids [3]; Dose 2.00 uM, primary screen): 0.551 log 2 fold change; Dose.FC.CTG (ISC-enriched organoids [3]; Dose 10.00 uM, primary screen): 0.541 log 2 fold change
9 | COc1cc(CCc2cc(NC(=O)c3ccc(N4CC(C)NC(C)C4)cc3)n[nH]2)cc(OC)c1 (stereo not drawn) [AZD4547] | 0.157 | 0.083 | 0.074 | −0.049 | 0.160 | 0.382 | 0.101 | 0.241 | −0.010 | −0.024 | −0.062 | −0.147 | – | – | – | – | – | – | – | – | –
10 | CC1=C(/C=C/C(C)=C/C=C/C(C)=C\C(=O)O)C(C)(C)CCC1 [Isotretinoin] | – | – | – | – | – | – | – | – | – | – | – | – | 0.982 | 0.965 | 0.604 | 0.331 | 1.156 | 0.966 | 0.779 | 0.304 | SSMD.LYZ.NS (ISC-enriched organoids [2]; [13]): 0.753; SSMD.LYZ.NS (ISC-enriched organoids [2]; [14]): 0.312; SSMD.LYZ.NS (ISC-enriched organoids [2]; [15]): 0.410; SSMD.LYZ.NS (ISC-enriched organoids [2]; [16]): 0.680
